Results: US8344115B2, “Immunoassay for specific determination of S-adenosylmethionine and analogs thereof in biological samples” (priority 2008, dated 2013)

Tested on: Rabbit antiserum (raised against AdaM-BSA)
Assay: Assay 1: end point competitive ELISA with rabbit antibody and antibody specificity (goat anti-rabbit strips, AdaM-HRP conjugate)
Assay type: binding
Settings: rabbit antiserum 1:12,500, duplicate
Description: New Zealand White rabbits were used for polyclonal antibody production. Immunization (1 ml total volume) was carried out with subcutaneous injections at multiple sites. Initial injection utilizes 1:1 mixture of complete Freund Adjuvant and AdaM-BSA conjugate solution in PBS upon emulsification. Subsequent injections use incomplete Freund adjuvant. The immunization was on 21 days cycle schedule, the animals were bleed from the ear artery (rabbit sedated) between 7 to 14 days after injection, normally on the 10th day. The blood was then processed to serum via centrifugation to remove red blood cells and clots. Immune response was detected after three booster injections. See FIG. 1 for a typical positive antibody response (indicated by antibody titer determination) wherein NA005 and 006 are animal designation numbers, 0 represents pre-bleed, 1 represents the first bleed after 4 immunizations.
4-1. Assay 1 Assay (End Point) with Rabbit Antibody and Antibody Specificity
• 1. Goat anti-rabbit coated microtiter well strips. • 2. —Rabbit antiserum diluted in incubation buffer (IB: 10 mM phosphate, 150 mM NaCl, 0.2% BSA, 0.1% Tween 20, 0.1% Proclin, pH 7.4) • 3. An IB+Tris (100 mM) buffer, pH 8.5 • 4. Samples: • (a) SAMe toluenesulfonate (tosylate) disulfate at concentration from […] to 1.4×10^−5 M in IB containing BSA 0.5%, and use 0.5% BSA-IB as zero sample. • (b) SAH at concentration from zero and 1.4×10^−8 to 1.4×10^−4 M. • (c) Adenosine at concentration from zero and 5.6×10^−9 M. to 5.6×10^−5 M • (d) Guanosine at concentration from zero and 3.0×10^−9 M to 3.0×10^−5 M • 5. AdaM-HRP conjugate (diluted to HRP concentration @30 μg/mL) in IB. • 6. —HRP substrate: one reagent substrate solution NeA-blue Tetramethylbenzidine Substrate, Clinical Science Products, Inc., Mansfield, Mass. • 7. 1N phosphoric acid Procedure: • 1. —The rabbit antiserum was diluted 1:12,500 in IB and pre-incubated (60 μl/well) in goat-antirabbit coated strips for at least one hour. • 2. Excess antibody was then decanted, washed, and blot dry. • 3. To each well was then added 10 μl of the pH 8.5 IB+Tris buffer followed by 25 μl of samples. The mixture was incubated on a orbital shaker for 25 min. All samples were tested in duplicate except the zero sample, in 6 wells. • 4. Twenty five microliter (25 μl) of AdaM-HRP conjugate solution was then added and incubated for additional 25 min with shaking. • 5. The assay mixture was then decanted, washed, and blot dry. • 6. To each well was added 60 μl/well of HRP substrate and incubate for 15 min. • 7. Stop the substrate development with 120 μl/well of 1N phosphoric acid. • 8. Read OD450 on a Perkin Elmer Lambda (microtiter plate) Reader. Results: (See Table 1 below)

Compound: Nc1ncnc2c1ncn2[C@@H]1O[C@H](CSCC[C@H](N)C(=O)O)[C@@H](O)[C@H]1O [SAH, S-Adenosylhomocysteine]
- OD450 (sample concentration 1.4E−4 (M)): 0.209
- OD450 (sample concentration 1.4E−5 (M)): 0.244
- OD450 (sample concentration 1.4E−6 (M)): 0.293
- OD450 (sample concentration 1.4E−7 (M)): 0.323
- OD450 (sample concentration 1.4E−8 (M)): 0.337

Compound: Nc1nc2c(ncn2[C@@H]2O[C@H](CO)[C@@H](O)[C@H]2O)c(=O)[nH]1 [Guanosine]
- OD450 (sample concentration 3.0E−5 (M)): 0.371
- OD450 (sample concentration 3.0E−6 (M)): 0.383
- OD450 (sample concentration 3.0E−7 (M)): 0.374
- OD450 (sample concentration 3.0E−8 (M)): 0.324
- OD450 (sample concentration 3.0E−9 (M)): 0.350

Compound: Nc1ncnc2c1ncn2[C@@H]1O[C@H](CO)[C@@H](O)[C@H]1O [Adenosine]
- OD450 (sample concentration 5.6E−5 (M)): 0.256
- OD450 (sample concentration 5.6E−6 (M)): 0.300
- OD450 (sample concentration 5.6E−7 (M)): 0.305
- OD450 (sample concentration 5.6E−8 (M)): 0.339
- OD450 (sample concentration 5.6E−9 (M)): 0.342
